Among the data in US12398154B2, “Azaquinazoline pan-KRas inhibitors” (Mirati Therapeutics, Inc., priority 2020, dated 2025) are IC50 values, retold here.

Experiment [1] concerns the target KRas G12D (Homo sapiens, UniProt P01116, G12D). Description: biochemical.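 Further: TR-FRET displacement binding assay on KRas, read after a one-hour incubation at room temperature, IC50 fitted from percent-of-control values.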
Description: (§1) The ability of a compound to bind to KRas was measured using a TR-FRET displacement assay. […] After a 60-minute incubation at room temperature, the reaction was measured using a BMG LABTECH CLARIO star Plus via TR-FRET. […] The POC values were fit to a 4-parameter IC50 equation and the IC50 value reported.
Experiment [2] has as its target KRas G12V (Homo sapiens, UniProt P01116, G12V). Description: biochemical.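 Further: KRas binding measured by TR-FRET displacement at room temperature, IC50 fitted from percent of control values.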
Description: as §1
Experiment [3] has as its target KRas G12C (Homo sapiens, UniProt P01116, G12C). Description: biochemical.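 Further: binding to KRas assessed by TR-FRET displacement after one hour incubation at room temperature, potency fitted from percent-of-control values.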
Description: as §1
For experiment [4], the target named is KRas G12R (Homo sapiens, UniProt P01116, G12R). Put plainly: biochemical.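 Further: TR-FRET displacement assay of compound binding to KRas, read after one hour at room temperature, potency from a four-parameter fit of percent-of-control values.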
Description: as §1
The target of experiment [5] is KRas G12S (Homo sapiens, UniProt P01116, G12S). Put plainly: biochemical.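 Further: TR-FRET displacement binding to KRas, read after one hour incubation at room temperature, IC50 from four-parameter fit of percent of control.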
Description: as §1
The target in experiment [6] is KRas G12A (Homo sapiens, UniProt P01116, G12A). Description: biochemical.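 Further: binding to KRas measured by TR-FRET displacement after one hour at room temperature, IC50 from a four-parameter fit of percent-of-control values.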
Description: as §1
The target in experiment [7] is KRas WT (Homo sapiens, UniProt P01116). Put plainly: biochemical.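 Further: binding to KRas read as TR-FRET displacement after a one-hour room-temperature incubation, IC50 derived from percent-of-control values.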
Description: as §1
Experiment [8] concerns the target T1, KRas Q61H (Homo sapiens, UniProt P01116, Q61H).
T1 construct: Biotinylated KRas (corresponding to amino acids 1-169, produced at Accelegan Inc.); biotin (biotinylated); purchased Accelegan Inc
Description: KRas binding assay (TR-FRET displacement).
Description: as §1

Experiment [9] addresses T2, KRas G13D (Homo sapiens, UniProt P01116, G13D).
T2 construct: Biotinylated KRas (corresponding to amino acids 1-169, produced at Accelegan Inc.); biotin (biotinylated); purchased Accelegan Inc
Description: KRas binding assay (TR-FRET displacement).
Description: as §1

Sequence of KRas G12C (P01116 1-169 isoform P01116-2 G12C): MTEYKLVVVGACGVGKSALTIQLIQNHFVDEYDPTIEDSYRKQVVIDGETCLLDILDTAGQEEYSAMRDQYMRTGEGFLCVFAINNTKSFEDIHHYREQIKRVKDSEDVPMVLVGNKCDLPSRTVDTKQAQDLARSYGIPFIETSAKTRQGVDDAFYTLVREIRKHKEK
Sequence of KRas G12D (P01116 1-169 isoform P01116-2 G12D): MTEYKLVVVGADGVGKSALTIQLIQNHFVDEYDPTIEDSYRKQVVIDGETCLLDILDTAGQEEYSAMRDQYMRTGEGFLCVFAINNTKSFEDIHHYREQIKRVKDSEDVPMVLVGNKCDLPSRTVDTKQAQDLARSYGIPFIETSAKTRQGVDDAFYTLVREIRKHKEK
Sequence of KRas G12V (P01116 1-169 isoform P01116-2 G12V): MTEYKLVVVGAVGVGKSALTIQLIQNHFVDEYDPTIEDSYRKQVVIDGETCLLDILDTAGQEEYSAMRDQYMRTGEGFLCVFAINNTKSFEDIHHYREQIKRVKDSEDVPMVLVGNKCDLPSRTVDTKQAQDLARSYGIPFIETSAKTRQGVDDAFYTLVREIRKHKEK
Sequence of KRas G12R (P01116 1-169 isoform P01116-2 G12R): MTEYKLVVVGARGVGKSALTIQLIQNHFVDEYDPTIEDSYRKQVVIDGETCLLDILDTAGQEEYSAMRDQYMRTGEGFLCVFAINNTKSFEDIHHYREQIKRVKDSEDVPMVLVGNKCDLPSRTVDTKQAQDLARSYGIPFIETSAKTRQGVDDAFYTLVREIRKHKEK
T2 sequence (P01116 1-169 isoform P01116-2 G13D): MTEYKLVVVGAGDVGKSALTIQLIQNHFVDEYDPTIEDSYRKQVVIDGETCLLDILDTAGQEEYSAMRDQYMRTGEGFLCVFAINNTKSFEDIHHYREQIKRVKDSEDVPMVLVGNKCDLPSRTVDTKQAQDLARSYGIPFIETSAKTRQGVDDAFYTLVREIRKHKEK
Sequence of KRas WT (P01116 1-169 isoform P01116-2): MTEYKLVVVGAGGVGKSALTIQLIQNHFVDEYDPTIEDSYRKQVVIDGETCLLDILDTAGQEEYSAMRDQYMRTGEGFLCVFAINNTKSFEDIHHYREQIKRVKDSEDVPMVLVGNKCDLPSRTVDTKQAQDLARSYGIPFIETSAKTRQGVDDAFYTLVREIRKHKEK
T1 sequence (P01116 1-169 isoform P01116-2 Q61H): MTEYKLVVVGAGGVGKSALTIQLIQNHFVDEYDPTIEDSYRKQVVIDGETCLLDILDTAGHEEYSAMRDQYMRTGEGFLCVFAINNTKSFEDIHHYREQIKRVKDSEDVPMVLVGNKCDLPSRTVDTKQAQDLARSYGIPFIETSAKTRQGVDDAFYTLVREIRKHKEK
Sequence of KRas G12S (P01116 1-169 isoform P01116-2 G12S): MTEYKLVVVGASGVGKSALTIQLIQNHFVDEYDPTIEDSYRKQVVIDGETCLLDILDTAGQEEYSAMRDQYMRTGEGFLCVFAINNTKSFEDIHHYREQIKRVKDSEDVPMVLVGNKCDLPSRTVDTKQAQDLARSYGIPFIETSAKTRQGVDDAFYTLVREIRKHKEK
Sequence of KRas G12A (P01116 1-169 isoform P01116-2 G12A): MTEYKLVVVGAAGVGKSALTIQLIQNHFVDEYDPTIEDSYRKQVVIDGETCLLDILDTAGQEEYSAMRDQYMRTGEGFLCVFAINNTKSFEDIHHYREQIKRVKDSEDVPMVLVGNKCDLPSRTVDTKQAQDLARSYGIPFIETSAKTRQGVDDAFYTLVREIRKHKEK

For `CN(C)C(=O)c1cc2n(n1)CCCN(c1nc(OCC34CCCN3CCC4)nc3c(F)c(-c4cccc5cccc(F)c45)ncc13)C2` [Example 260, 5-(8-fluoro-7-(8-fluoronaphthalen-1-yl)-2-((hexahydro-1H-pyrrolizin-7a-yl)methoxy)pyrido[4,3-d]pyrimidin-4-yl)-N,N-dimethyl-5,6,7,8-tetrahydro-4H-pyrazolo[1,5-a][1,4]diazepine-2-carboxamide], the IC50 was 0.061 µM in experiment [1]; 204 nM in experiment [2]; 0.591 µM in experiment [3]; 455 nM in experiment [4]; 0.419 µM in experiment [5]; 294 nM in [6]. In addition, the IC50 in experiment [7] is 0.864 µM; in [8], 1060 nM; in experiment [9] it was 1170 nM.
`OC1CC2(CCCN(c3nc(OCC45CCCN4CCC5)nc4c(F)c(-c5cccc6cccc(F)c56)ncc34)C2)C1` (stereo not drawn) [Example 235, 6-(8-fluoro-7-(8-fluoronaphthalen-1-yl)-2-((hexahydro-1H-pyrrolizin-7a-yl)methoxy)pyrido[4,3-d]pyrimidin-4-yl)-6-azaspiro[3.5]nonan-2-ol]: the half-maximal inhibitory concentration (IC50) was determined as 2.66 µM in experiment [1]; 1700 nM in experiment [2]; 1.65 µM in experiment [3]; 2870 nM in experiment [4]; 2.01 µM in experiment [5]; 2150 nM in [6]. In addition, the results for the IC50 in [7], in [8] and in [9] were 2.65 µM, 3360 nM and 2710 nM, respectively.
Turning to `NS(=O)(=O)NC1CCCN(c2nc(OCC34CCCN3CCC4)nc3c(F)c(-c4cccc5cccc(F)c45)ncc23)C1` (stereo not drawn) [Example 240, 8-fluoro-7-(8-fluoronaphthalen-1-yl)-2-(1,2,3,5,6,7-hexahydropyrrolizin-8-ylmethoxy)-4-[3-(sulfamoylamino)piperidin-1-yl]pyrido[4,3-d]pyrimidine], the IC50 in [1] turned out to be 1.14 µM; in experiment [2], 1550 nM; in experiment [3], 0.597 µM; in experiment [4], 777 nM; in experiment [5], 0.492 µM; in [6], 586 nM. Besides, the half-inhibitory concentration (IC50) in experiment [7] turned out to be 0.478 µM; in [8], 498 nM; in [9] it was 350 nM.
In the case of `Fc1c(-c2cccc3cccc(F)c23)ncc2c(N3CCCC4(CCC4)C3)nc(OCC34CCCN3CCC4)nc12` [Example 232, 8-fluoro-7-(8-fluoronaphthalen-1-yl)-2-((hexahydro-1H-pyrrolizin-7a-yl)methoxy)-4-(6-azaspiro[3.5]nonan-6-yl)pyrido[4,3-d]pyrimidine], the IC50 was found to be 11.9 µM in [1]; 7780 nM in experiment [2]; 13.6 µM in [3]; 9990 nM in experiment [4]; 19.4 µM in [5]; 17300 nM in [6]. Further, the IC50 in experiment [7] stood at 19.2 µM; in [8], 25900 nM; in [9], 18000 nM.
Consider `OCC1CCCN(c2nc(OCC34CCCN3CCC4)nc3c(F)c(-c4cccc5cccc(F)c45)ncc23)C1` (stereo not drawn) [Example 113, (1-(8-fluoro-7-(8-fluoronaphthalen-1-yl)-2-((tetrahydro-1H-pyrrolizin-7a(5H)-yl)methoxy)pyrido[4,3-d]pyrimidin-4-yl)piperidin-3-yl)methanol], for which the IC50 in experiment [1] is 14.2 µM; in experiment [2], 12000 nM; in experiment [3] it was 7.11 µM; in experiment [4], 16000 nM; in experiment [5], 10.6 µM; in experiment [6], 9480 nM. Moreover, the IC50 in [7] came out at 8.47 µM; in experiment [8], 12200 nM; in [9], 12100 nM.
For the compound `CC1CC(O)CCN(c2nc(OCC34CCCN3CCC4)nc3c(F)c(-c4cccc5cccc(F)c45)ncc23)C1` (stereo not drawn) [Example 116, 1-(8-fluoro-7-(8-fluoronaphthalen-1-yl)-2-((tetrahydro-1H-pyrrolizin-7a(5H)-yl)methoxy)pyrido[4,3-d]pyrimidin-4-yl)-6-methylazepan-4-ol], the IC50 in experiment [1] came to 3.31 µM; in experiment [2] it was 4090 nM; in [3], 4.41 µM; in [4], 6270 nM; in experiment [5], 3.59 µM; in experiment [6] it was 2740 nM. The IC50 in experiment [7] was 3.45 µM; in [8] it was 5200 nM; in [9], 2700 nM.
As to `Fc1c(-c2cccc3cccc(F)c23)ncc2c(NCCc3c[nH]c4ncccc34)nc(OCC34CCCN3CCC4)nc12` [Example 212, N-(2-(1H-pyrrolo[2,3-b]pyridin-3-yl)ethyl)-8-fluoro-7-(8-fluoronaphthalen-1-yl)-2-((tetrahydro-1H-pyrrolizin-7a(5H)-yl)methoxy)pyrido[4,3-d]pyrimidin-4-amine], the IC50 in experiment [1] came out at 15.6 µM; in [2], 1350 nM; in experiment [3], 3.12 µM; in experiment [4], 880 nM; in [5], 6.45 µM; in [6], 2830 nM. For the same compound, the IC50 in experiment [7] is 8.36 µM; in [8], 17400 nM; in experiment [9], 10100 nM.
Consider `CC1(O)CCCN(c2nc(OCC34CCCN3CCC4)nc3c(F)c(-c4cccc5cccc(F)c45)ncc23)C1` (stereo not drawn) [Example 17, 1-(8-fluoro-7-(8-fluoronaphthalen-1-yl)-2-((hexahydro-1H-pyrrolizin-7a-yl)methoxy)pyrido[4,3-d]pyrimidin-4-yl)-3-methylpiperidin-3-ol], for which the concentration for half-maximal inhibition (IC50) turned out to be 0.746 µM in experiment [1]; 1490 nM in experiment [2]; 1.19 µM in [3]; 2230 nM in experiment [4]; 0.921 µM in experiment [5]; 961 nM in [6]. Also, the IC50 in experiment [7] came out at 0.956 µM; in [8], 1860 nM; in experiment [9], 925 nM.
For `Fc1c(-c2cccc3cccc(F)c23)ncc2c(NCc3ccc4nonc4c3)nc(OCC34CCCN3CCC4)nc12` [Example 125, N-(benzo[c][1,2,5]oxadiazol-5-ylmethyl)-8-fluoro-7-(8-fluoronaphthalen-1-yl)-2-((tetrahydro-1H-pyrrolizin-7a(5H)-yl)methoxy)pyrido[4,3-d]pyrimidin-4-amine], the IC50 in [1] came to 60.4 µM; in experiment [2] it was 3920 nM; in experiment [3] it was 4.25 µM; in experiment [4], 4390 nM; in experiment [5], 7.42 µM; in experiment [6], 5520 nM. Also, the IC50 in experiment [7] was determined as 13.3 µM; in experiment [8] it was 39000 nM; in [9] it was 29100 nM.
Turning to `Fc1c(-c2cccc3cccc(Cl)c23)ncc2c(N3CC(n4ccnc4)C3)nc(OCC34CCCN3CCC4)nc12` [Example 101, 4-(3-(1H-imidazol-1-yl)azetidin-1-yl)-7-(8-chloronaphthalen-1-yl)-8-fluoro-2-((tetrahydro-1H-pyrrolizin-7a(5H)-yl)methoxy)pyrido[4,3-d]pyrimidine], the IC50 in experiment [1] is 15.3 µM; in experiment [2], 966 nM; in [3], 0.679 µM; in [4], 615 nM; in [5], 1.34 µM; in [6] it was 994 nM. For the same compound, the IC50 in experiment [7] was 3.03 µM; in experiment [8] it was 2580 nM; in [9], 4230 nM.
As to `Fc1c(-c2cccc3cccc(F)c23)ncc2c(NCc3nnc4ncccn34)nc(OCC34CCCN3CCC4)nc12` [Example 121, N-([1,2,4]triazolo[4,3-a]pyrimidin 3 ylmethyl) 8-fluoro-7-(8-fluoronaphthalen-1-yl)-2-((tetrahydro-1H-pyrrolizin-7a(5H)-yl)methoxy)pyrido[4,3-d]pyrimidin-4-amine], the IC50 in experiment [1] worked out at 42.8 µM; in [2], 6640 nM; in experiment [3], 9.1 µM; in [4] it was 12300 nM; in experiment [5], 18.6 µM; in experiment [6] it was 15500 nM. The IC50 in [7] came to 13 µM; in experiment [8], 25400 nM; in experiment [9], 17300 nM.
For `Nc1ncccc1CNc1nc(OCC23CCCN2CCC3)nc2c(F)c(-c3cccc4cccc(F)c34)ncc12` [Example 70, N-((2-aminopyridin-3-yl)methyl)-8-fluoro-7-(8-fluoronaphthalen-1-yl)-2-((hexahydro-1H-pyrrolizin-7a-yl)methoxy)pyrido[4,3-d]pyrimidin-4-amine], the IC50 in experiment [1] was determined as 14.1 µM; in experiment [2], 397 nM; in experiment [3] it was 0.224 µM; in experiment [4], 215 nM; in experiment [5], 0.418 µM; in experiment [6], 403 nM. The IC50 in experiment [7] amounted to 2.86 µM; in [8], 10800 nM; in [9] it was 11700 nM.
On to `Fc1c(-c2cccc3cccc(F)c23)ncc2c(N3C[C@@H]4CC[C@@H](C4)C3)nc(OCC34CCCN3CCC4)nc12` [Example 18, 4-((1R,5S)-3-azabicyclo[3.2.1]octan-3-yl)-8-fluoro-7-(8-fluoronaphthalen-1-yl)-2-((hexahydro-1H-pyrrolizin-7a-yl)methoxy)pyrido[4,3-d]pyrimidine], for which the IC50 in experiment [1] was found to be 24 µM; in experiment [2], 4450 nM; in experiment [3], 8.79 µM; in experiment [4], 6780 nM; in experiment [5] it was 4.98 µM; in experiment [6], 7540 nM. Besides, the IC50 in [7] was 6.81 µM; in experiment [8] it was 13200 nM; in [9], 9370 nM.

As a reminder, the IC50 is the concentration that inhibits the measured activity by half. Low values mean inhibition by little substance, high ones a need for much substance.
